According to publication PMC6746776, “TA*p63 and GTAp63 achieve tighter transcriptional regulation in quality control by converting an inhibitory element into an additional transactivation domain” (Cell Death & Disease, 2019):
Where “and” joins values, the source holds several entries; their conditions need not be identical. Equal entries are not always repeated.

Assays:
[1] = test system: TAp63α; assay: BN-PAGE oligomeric state of TAp63α upon Dox treatment; conditions: H1299 stably expressing; pre-incubated with inhibitor 5, 25, 50 µM for 1 h, then 10 µM Dox 6 h; BN-PAGE
Description: (§1) As a control, we used the S582/S583A mutants, which remove the Chk2 priming site preventing tetramerization[13].
(§2) Three hundred nanogram expression vector carrying the p63α gene were transiently transfected in U2OS cells (12-well plate). The next day, cells were treated with 10 µM Dox for 6 h. Migration of the different oligomeric states is indicated by T (tetramer), D (dimer), and M (monomer). […] Western blot analysis was carried out using an anti-myc antibody (4A6, Merck). Cells were pre-incubated with increasing Chk2 (BML-277, Merck) or CK1 inhibitor (PF670462, Sigma–Aldrich) concentrations (5, 25, 50 µM) for 1 h. Afterwards, 10 µM Dox was added and cells were harvested 6 h later. Migration of the different oligomeric states is indicated by T (tetramer), D (dimer), and M (monomer). Vinculin was used as loading control. Protein levels loaded on BN-PAGE were adjusted to equal p63 amounts by prior western blot analysis. SDS-PAGE to detect phosphoshifts were not input adjusted
(§3) H1299 cells were transfected using the Qiagen Effectene kit according to the manufacturer’s manual in a 12-well plate or H1299 cells stably expressing p63 isoforms were used. Cells were harvested and lysed in NP lysis buffer (20 mM Tris, 150 mM NaCl, 2 mM MgCl2, 20 mM CHAPS, 1 mM DTT, complete protease inhibitor cocktail (Roche), PhosSTOP (Roche) pH 7.4 or pH 8.0). Benzonase (Merck) was added and samples were lysed on ice for 1 h. BN-PAGE (3–12%, Thermo Fisher Scientific) was performed and blotted as previously described[17],[35]. Protein levels loaded on BN-PAGE were adjusted to equal p63 amounts by prior western blot analysis. SDS-PAGE to detect phosphoshifts were not input adjusted.
(§4) 300 ng expression vector carrying the p63 gene were transiently transfected in H1299 cells (12-well plate). The next day, cells were treated with 10 µM Dox for 6 h. Migration of the different oligomeric states is indicated by T (tetramer), D (dimer) and M (monomer). […] Stably p63 expressing H1299 were treated with 10 µM Dox for up to 10 h. Protein levels loaded on BN-PAGE were adjusted to equal p63 amounts by prior western blot analysis. SDS-PAGE to detect phosphoshifts were not input adjusted.

[2] = test system: GTAp63α; assay: BN-PAGE oligomeric state of GTAp63α upon Dox treatment; conditions: H1299 stably expressing; pre-incubated with inhibitor 5, 25, 50 µM for 1 h, then 10 µM Dox 6 h; BN-PAGE
Description: as §1, §2, §3, §4

[3] = test system: TA*p63α; assay: BN-PAGE oligomeric state of TA*p63α upon Dox treatment; conditions: H1299 stably expressing; pre-incubated with inhibitor 5, 25, 50 µM for 1 h, then 10 µM Dox 6 h; BN-PAGE
Description: as §1, §2, §3, §4

[4] = biological target: the molecule itself; assay: native gel or EMSA; Blue-Native PAGE of lysates of transiently transfected U2OS or H1299 cells treated with 10 µM doxorubicin for 6 h; western blot with anti-myc

Molecule	prevention of Dox-induced tetramerization, TAp63α [1]	prevention of Dox-induced tetramerization, GTAp63α [2]	prevention of Dox-induced tetramerization, TA*p63α [3]	stoichiometry N [4]
NC(=O)c1ccc2nc(-c3ccc(Oc4ccc(Cl)cc4)cc3)[nH]c2c1 [BML-277]	Tetramerization can also be prevented	Tetramerization can also be prevented	Tetramerization can also be prevented	
Nc1nccc(-c2c(-c3ccc(F)cc3)ncn2C2CCCCC2)n1 [PF670462]	Tetramerization can also be prevented	Tetramerization can also be prevented	Tetramerization can also be prevented	
TA*p63α (natural protein, UniProt Q9H3D4-1 1-680, looked up, TA*p63α: another translation start site adds 39 aa N-terminally to TAp63α; phosphorylated after doxorubicin (phosphoshift on SDS-PAGE); also called myc-tagged TA*p63α wt; source: U2OS, transiently transfected, in lysate; not shown: myc, N-terminal, kept) MNFETSRCATLQYCPDPYIQRFVETPAHFSWKESYYRSTMSQSTQTNEFLSPEVFQHIWDFLEQPICSVQPIDLNFVDEPSEDGATNKIEISMDCIRMQDSDLSDPMWPQYTNLGLLNSMDQQIQNGSSSTSPYNTDHAQNSVTAPSPYAQPSSTFDALSPSPAIPSNTDYPGPHSFDVSFQQSSTAKSATWTYSTELKKLYCQIAKTCPIQIKVMTPPPQGAVIRAMPVYKKAEHVTEVVKRCPNHELSREFNEGQIAPPSHLIRVEGNSHAQYVEDPITGRQSVLVPYEPPQVGTEFTTVLYNFMCNSSCVGGMNRRPILIIVTLETRDGQVLGRRCFEARICACPGRDRKADEDSIRKQQVSDSTKNGDGTKRPFRQNTHGIQMTSIKKRRSPDDELLYLPVRGRETYEMLLKIKESLELMQYLPQHTIETYRQQQQQQHQHLLQKQTSIQSPSSYGNSSPPLNKMNSMNKLPSVSQLINPQQRNALTPTTIPDGMGANIPMMGTHMPMAGDMNGLSPTQALPPPLSMPSTSHCTPPPPYPTDCSIVSFLARLGCSSCLDYFTTQGLTTIYQIEHYSMDDLASLKIPEQFRHAIWKGILDHRQLHEFSSPSHLLRTPSSASTVSVGSSETRGERVIDAVRFTLRQTISFPPRDEWNDFNFDMDARRNKQQRIKEEGE				4 and 2
